Reference: patent US12678453B2, “Aerosolized formulations of HIV protease inhibitors for the treatment of airway reflux” (The Medical College of Wisconsin, Inc., priority 2020, dated 2026)
Entries after “also recorded” stand apart in the source; their conditions may differ.

Assays:
[1] = known clinical profile; cited from earlier work
porcine pepsin = target: T1, porcine pepsin (Sus scrofa, UniProt P00791); experiment: peptic activity assay (fluorescence polarization, casein-Alexa647 substrate); assay type: biochemical; details: for inhibition of pepsin activity: 200 nM casein-Alexa647, 0.01 U/μL pepsin, 5% DMSO, FIG. 3B; for IC50 for pepsin: bind to and inhibit pepsin, numbers only in FIG. 3
T1 construct: purchased Worthington (Lakewood, NJ)
T1 sequence (P00791 60-385): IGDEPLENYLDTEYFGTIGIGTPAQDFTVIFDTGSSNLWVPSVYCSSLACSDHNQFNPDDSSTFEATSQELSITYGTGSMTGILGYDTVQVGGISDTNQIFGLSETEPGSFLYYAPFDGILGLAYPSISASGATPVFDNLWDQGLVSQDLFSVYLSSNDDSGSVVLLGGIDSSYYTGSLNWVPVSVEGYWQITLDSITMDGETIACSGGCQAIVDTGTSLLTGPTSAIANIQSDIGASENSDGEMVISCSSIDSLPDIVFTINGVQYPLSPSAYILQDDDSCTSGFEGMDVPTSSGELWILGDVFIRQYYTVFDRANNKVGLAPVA
From the text: Fluorescent polarization assays were developed to test compound binding and inhibition of pepsin (FIG. 1). A competitive binding assay was developed using pepstatin, a known inhibitor of pepsin with subnanomolar affinity^91 (Roberts 2003). This binding assay measures the relative binding affinity but not the enzymatic inhibition of compounds. Thus, a separate peptic activity assay was developed, which uses fluorescently labelled alpha casein as substrate. Both assays are based on the principle of fluorescence polarization (FP), which holds that as the molecular size of a fluorescent species is altered through dissociation/breakdown or association/binding events, the degree of depolarization of plane polarized light changes accordingly, directly affecting the FP value.^92 (Lea 2011). In the assays used herein, millipolarization (mP) decreases as casein-Alexa647 is degraded by pepsin and increases with binding of pepsin to pepstatin-Alexa647.
Casein was labeled as described by Jolley (1996)^93 using a 2.5 ug/mg label to protein ratio. Specifically, 200 ul 10 mg/ml bovine alpha casein (C6780 Sigma Aldrich, St. Louis, MO) in 0.1M sodium bicarbonate was incubated with 5 ul 1 mg/ml Alexa Fluor 647 Carboxylic Acid, Succinimidyl Ester (in DMSO; A-20106 ThermoFisher Scientific, Waltham, MA) for 15 minutes at room temperature. The mixture was applied to a Sephadex G-25 column (90×5 mm) in a glass Pasteur pipette. Elution was performing using D-PBS pH7.4 (ThermoFisher Scientific) containing 0.1% sodium azide. The fast-moving band containing casein-bound fluorophore was collected in a volume of approximately 0.4 ml. Concentration of resultant probe (casein-Alexa647 in PBS-azide) was estimated via spectrophotometry using Beer's law (Implen Nanophotometer, Implen, Inc. Westlake Village, CA). Probe was aliquoted and stored at −20° C. until use.
Assays were performed in 20 ul volumes in 384-well black optical plates (Nunc, Roskilde, DK). Pepstatin dose response curves were used to optimize pepsin/inhibitor concentrations and assay incubation times. Dose response was performed using 0.3-1000 uM unlabeled pepstatin with 100-500 nM pepstatin-Alexa647 probe, 0.003-3U/μl porcine pepsin (Worthington, Lakewood, NJ), and 10-37% dimethyl sulfoxide (HIV protease inhibitor diluent) in 0.1M HCl, pH1+0.01% Tween-20. Reagents were combined (with pepsin added last) in 50% of the final reaction volume for mixing and immediately read on a BioTek Cytation (BioTek Instruments, Winooski, VT) with far-red FP filter cube at excitation/emission of […] for five minutes, in at least triplicate. Averaged polarization values of replicate reads were plotted against probe or labeled pepstatin concentrations in GraphPad Prism 8 (La Jolla, CA). Reagent concentrations yielding greatest dynamic range were selected for the assay. The peptic activity assay was optimized similarly using casein-Alexa647 probe in 0.1M HCl, pH1+0.01% Tween-20. Reagents were combined (adding pepsin last) and read immediately at minimal intervals (<2 minutes apart) over 30 minutes. The assay was performed in triplicate and mean polarization value was plotted over time.
HIV protease inhibitors were dissolved in DMSO. […] Compounds were tested under optimized assay conditions over a range of three logs concentration in triplicate and plotted using GraphPad Prism 8. Half-maximal inhibitory concentration (IC50) were calculated from kinetic traces analyzed using an online tool (icekat.herokuapp.com/icekat, O1p 2019^95). Percent bound and percent activity were calculated by normalization to the measured polarization value without HIV protease inhibitor compound.
Our team developed and optimized two high-throughput screening (HTS) assays to identify compounds that are specific and sensitive inhibitors of pepsin (FIG. 1). The first assay is a binding assay that measures the ability of a compound to compete with fluorescently labeled pepstatin for its binding site on pepsin.

inhibition of pepsin activity (porcine pepsin) | IC50 for pepsin (porcine pepsin) | Structure (SMILES) | side effects / tolerability [1]
inhibition of pepsin activity | low micromolar range | CC(C)CN(C[C@@H](O)[C@H](Cc1ccccc1)NC(=O)O[C@H]1CCOC1)S(=O)(=O)c1ccc(N)cc1 [amprenavir, [(3S)-oxolan-3-yl] N-[(2S,3R)-4-[(4-aminophenyl)sulfonyl-(2-methylpropyl)amino]-3-hydroxy-1-phenylbutan-2-yl]carbamate] | minimal side effects such as diarrhea, nausea and vomiting
inhibition of pepsin activity | – | CC(C)c1nc(CN(C)C(=O)N[C@H](C(=O)N[C@@H](Cc2ccccc2)C[C@H](O)[C@H](Cc2ccccc2)NC(=O)OCc2cncs2)C(C)C)cs1 [ritonavir, 1,3-thiazol-5-ylmethyl N-[(2S,3 S,5S)-3-hydroxy-5-[[(2S)-3-methyl-2-[[methyl-[(2-propan-2-yl-1,3-thiazol-4-yl)methyl]carbamoyl]amino]butanoyl]amino]-1,6-diphenylhexan-2-yl]carbamate] | minimal side effects such as diarrhea, nausea and vomiting
inhibition of pepsin activity | low micromolar range | CC(C)(C)NC(=O)[C@@H]1C[C@@H]2CCCC[C@@H]2CN1C[C@@H](O)[C@H](Cc1ccccc1)NC(=O)[C@H](CC(N)=O)NC(=O)c1ccc2ccccc2n1 [saquinavir, (2S)—N-[(2S,3R)-4-[(3 S,4aS,8aS)-3-(tert-butylcarbamoyl)-3,4,4a,5,6,7,8,8a-octahydro-1H-isoquinolin-2-yl]-3-hydroxy-1-phenylbutan-2-yl]-2-(quinoline-2-carbonylamino)butanediamide] | can cause QT prolongation, heart block, high blood lipids, and liver problems

Structure (SMILES) | inhibition of pepsin activity (porcine pepsin) | IC50 for pepsin (porcine pepsin) | side effects / tolerability [1]
CC(C)CN(C[C@@H](O)[C@H](Cc1ccccc1)NC(=O)O[C@H]1CO[C@H]2OCC[C@H]21)S(=O)(=O)c1ccc(N)cc1 [darunavir, [(3a S,4R,6aR)-2,3,3a,4,5,6a-hexahydrofuro[2,3-b]furan-4-yl] N-[(2S,3R)-4-[(4-aminophenyl)sulfonyl-(2-methylpropyl)amino]-3-hydroxy-1-phenylbutan-2-yl]carbamate] | inhibition of pepsin activity | low micromolar range; also recorded: lowest IC50 | –
